Drawing on patent US20230302150A1, “ANTIBODY-TLR AGONIST CONJUGATES, METHODS AND USES THEREOF” (Ambrx, Inc., priority 2020, published 2023), this text covers EC50 for 19 molecules.

Where two headings read alike, the source gives them in different places. Some results are limits rather than exact numbers.

The target in this experiment is T1, hTLR7 (Homo sapiens, UniProt Q9NYK1).
T1 construct: expressed in transfected cells; host or cells: HEK-Blue hTLR7 reporter cell line
T1 sequence (Q9NYK1 27-1049): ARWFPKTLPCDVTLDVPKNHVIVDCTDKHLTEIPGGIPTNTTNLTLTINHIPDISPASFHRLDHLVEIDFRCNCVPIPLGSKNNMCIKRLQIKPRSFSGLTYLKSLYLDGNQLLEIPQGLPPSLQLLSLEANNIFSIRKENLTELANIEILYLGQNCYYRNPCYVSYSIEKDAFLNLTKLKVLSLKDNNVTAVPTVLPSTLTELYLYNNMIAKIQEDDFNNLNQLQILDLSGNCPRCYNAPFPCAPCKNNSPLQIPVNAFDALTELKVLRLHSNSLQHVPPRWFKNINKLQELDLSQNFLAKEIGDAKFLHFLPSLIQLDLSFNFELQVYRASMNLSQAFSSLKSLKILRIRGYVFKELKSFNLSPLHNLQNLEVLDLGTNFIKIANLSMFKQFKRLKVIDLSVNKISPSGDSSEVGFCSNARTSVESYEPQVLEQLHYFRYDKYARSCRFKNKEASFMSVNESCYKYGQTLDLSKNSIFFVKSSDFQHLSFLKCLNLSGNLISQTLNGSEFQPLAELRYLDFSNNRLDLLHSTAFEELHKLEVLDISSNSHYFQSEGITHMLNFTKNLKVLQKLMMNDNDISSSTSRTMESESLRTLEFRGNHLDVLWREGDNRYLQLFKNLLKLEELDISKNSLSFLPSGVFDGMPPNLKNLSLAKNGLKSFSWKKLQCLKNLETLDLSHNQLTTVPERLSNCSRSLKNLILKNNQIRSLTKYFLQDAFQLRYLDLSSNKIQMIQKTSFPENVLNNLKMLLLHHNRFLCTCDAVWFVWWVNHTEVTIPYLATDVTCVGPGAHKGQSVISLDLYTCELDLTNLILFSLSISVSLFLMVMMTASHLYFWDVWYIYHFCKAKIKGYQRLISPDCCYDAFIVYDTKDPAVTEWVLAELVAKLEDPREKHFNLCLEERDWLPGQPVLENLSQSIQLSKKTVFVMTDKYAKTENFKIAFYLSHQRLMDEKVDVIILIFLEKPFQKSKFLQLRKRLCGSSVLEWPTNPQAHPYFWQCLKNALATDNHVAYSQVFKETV
Description: HEK-Blue hTLR7 reporter assay (NF-kB-induced SEAP, Quanti-Blue). Type of experiment: cell-based. Particulars: read-out: EC50. The procedure:
HEK-Blue™ hTLR7 cells were incubated in HEK-Blue™ Detection medium and stimulated with increasing concentrations of TLR7 or TLR8 or TLR7/8 agonists. […] The EC50 was determined from dose-response curve using Prism Software.
On the technique in general: Reporter assays use an easily measured gene product as a stand-in for the process of interest.

Setting [1] is: Table 19, TLR7, drug-linkers with PEG shielding.
[2] abbreviates: Core 3 compounds, assay not given.

The EC50 is the concentration at which the effect is half-maximal. For the molecule `CCCCOc1nc(N)c2[nH]c(=O)n(Cc3ccc(CN4CCC(CCNC(=O)[C@H](CCCCNC(=O)CCOCCOCCOCCOCCOCCOCCOCCOCCOCCOCCOCCOCCOCCOCCOCCOCCOCCOCCOCCOCCOCCOCCOCCOC)NC(=O)CON)CC4)cc3)c2n1` [AXC-949, (S)—N-(2-(1-(4-((6-amino-2-butoxy-8-oxo-7,8-dihydro-9H-purin-9-yl)methyl)benzyl)piperidin-4-yl)ethyl)-2-(2-(aminooxy)acetamido)-6-PEG24-amidohexanamide], the EC50 under setting [1] is 760 nM.
On to `CCCCOc1nc(N)c2[nH]c(=O)n(Cc3ccc(CN4CCC(CCNC(=O)[C@H](CCCCNC(=O)CCOCCOCCOCCOCCOCCOCCOCCOC)NC(=O)CON)CC4)cc3)c2n1` [AXC-950, (S)—N-(2-(1-(4-((6-amino-2-butoxy-8-oxo-7,8-dihydro-9H-purin-9-yl)methyl)benzyl)piperidin-4-yl)ethyl)-2-(2-(aminooxy)acetamido)-6-PEG8-amidohexanamide], for which the EC50 under setting [1] was determined as 443 nM.
Same read-out and setting: for `CCCCOc1nc(N)c2[nH]c(=O)n(Cc3ccc(CN4CCC(CCNC(=O)[C@H](CCCCNC(=O)CCOCCOCCOCCOCCOCCOCCOCCOCCOCCOCCOCCOCCOCCOCCOCCOCCOCCOCCOCCOCCOCCOCCOCCOCCOCCOCCOCCOCCOCCOCCOCCOCCOCCOCCOCCOCCOC)NC(=O)CON)CC4)cc3)c2n1` [AXC-951, (S)—N-(2-(1-(4-((6-amino-2-butoxy-8-oxo-7,8-dihydro-9H-purin-9-yl)methyl)benzyl)piperidin-4-yl)ethyl)-2-(2-(aminooxy)acetamido)-6-(PEG37)hexanamide] the value was 842 nM; for `CCCCOc1nc(N)c2[nH]c(=O)n(Cc3ccc(CN4CCC(CCNC(=O)[C@H](CCCCNC(=O)CCCC(=O)NCCOCCOCCOCCOCCC(=O)NC(COCCC(=O)NCCOCCOCCOCCOCCOCCOCCOCCOC)(COCCC(=O)NCCOCCOCCOCCOCCOCCOCCOCCOC)COCCC(=O)NCCOCCOCCOCCOCCOCCOCCOCCOC)NC(=O)CON)CC4)cc3)c2n1` [AXC-952, (S)—N-(2-(1-(4-((6-amino-2-butoxy-8-oxo-7,8-dihydro-9H-purin-9-yl)methyl)benzyl)piperidin-4-yl)ethyl)-2-(2-(aminooxy)acetamido)-6-(dPEG4-(m-dPEG8)3)hexanamide], 1020 nM.
On to `CCCCOc1nc(N)c2[nH]c(=O)n(Cc3ccc(CN4CCC(CCNC(=O)[C@H](Cc5ccc(O)cc5)NC(=O)CON)CC4)cc3)c2n1` [AXC-953, (S)—N-(2-(1-(4-((6-amino-2-butoxy-8-oxo-7,8-dihydro-9H-purin-9-yl)methyl)benzyl)piperidin-4-yl)ethyl)-2-(2-(aminooxy)acetamido)-3-(4-hydroxyphenyl)propanamide], for which, under setting [1], the EC50 was 201 nM.
As for `CCCCOC(=O)Nc1nc(OCCCC)nc2c1[nH]c(=O)n2Cc1ccc(CN2CCC(CCNC(=O)CON)CC2)cc1` [AXC-954, butyl (9-(4-((4-(2-(2-(aminooxy)acetamido)ethyl)piperidin-1-yl)methyl)benzyl)-2-butoxy-8-oxo-8,9-dihydro-7H-purin-6-yl)carbamate], under setting [1], the EC50 was 111 nM.
`CCCCOc1nc(N)c2[nH]c(=O)n(Cc3ccc(CN4CCC(CCNC(=O)CCN5C(=O)C=CC5=O)CC4)cc3)c2n1` [AXC-955, N-(2-(1-(4-((6-amino-2-butoxy-8-oxo-7,8-dihydro-9H-purin-9-yl)methyl)benzyl)piperidin-4-yl)ethyl)-3-(2,5-dioxo-2,5-dihydro-1H-pyrrol-1-yl)propanamide]: the EC50 under setting [1] is 173 nM.
For `CCCCOc1nc(N)c2[nH]c(=O)n(Cc3ccc(CN4CCC(CCNC(=O)[C@H](Cc5ccc(O[C@@H]6O[C@H](CO)[C@@H](O)[C@H](O)[C@H]6O)cc5)NC(=O)CON)CC4)cc3)c2n1` [AXC-956, (S)—N-(2-(1-(4-((6-amino-2-butoxy-8-oxo-7,8-dihydro-9H-purin-9-yl)methyl)benzyl)piperidin-4-yl)ethyl)-2-(2-(aminooxy)acetamido)-3-(4-(((2S,3R,4S,5S,6R)-3,4,5-trihydroxy-6-(hydroxymethyl)tetrahydro-2H-pyran-2-yl)oxy)phenyl)propanamide], the EC50 under setting [1] was 158 nM.
For `CCCCOc1nc(N)c2[nH]c(=O)n(Cc3ccc(CN4CCC(CCNC(=O)[C@@H](CCCCN)NC(=O)CON)CC4)cc3)c2n1` [AXC-958, (R)-6-amino-N-(2-(1-(4-((6-amino-2-butoxy-8-oxo-7,8-dihydro-9H-purin-9-yl)methyl)benzyl)piperidin-4-yl)ethyl)-2-(2-(aminooxy)acetamido)hexanamide], under setting [1], the EC50 worked out at 39.6 nM.
Consider `CCCCOc1nc(N)c2[nH]c(=O)n(Cc3ccc(CN4CCC(CCNC(=O)[C@@H](CCCCNC(=O)CCOCCOCCOCCOCCOCCOCCOCCOCCOCCOCCOCCOCCOCCOCCOCCOCCOCCOCCOCCOCCOCCOCCOCCOC)NC(=O)CON)CC4)cc3)c2n1` [AXC-959, (R)—N-(2-(1-(4-((6-amino-2-butoxy-8-oxo-7,8-dihydro-9H-purin-9-yl)methyl)benzyl)piperidin-4-yl)ethyl)-2-(2-(aminooxy)acetamido)-6-PEG24-amidohexanamide], for which the EC50 under setting [1] is 551 nM.
In the case of `CCCCOc1nc(N)c2[nH]c(=O)n(Cc3ccc(CN4CCC(CCNC(=O)[C@H](Cc5ccc(OP(=O)(O)O)cc5)NC(=O)CON)CC4)cc3)c2n1` [AXC-960, (S)-4-(3-((2-(1-(4-((6-amino-2-butoxy-8-oxo-7,8-dihydro-9H-purin-9-yl)methyl)benzyl)piperidin-4-yl)ethyl)amino)-2-(2-(aminooxy)acetamido)-3-oxopropyl)phenyl dihydrogen phosphate], under setting [1], the EC50 amounted to 267 nM.
Same read-out and setting: the value for `CCCCOc1nc(N)c2[nH]c(=O)n(Cc3ccc(CN4CCC(CCNC(=O)[C@@H](CCCCNC(=O)CCCC(=O)NCCOCCOCCOCCOCCC(=O)NC(COCCC(=O)NCCOCCOCCOCCOCCOCCOCCOCCOC)(COCCC(=O)NCCOCCOCCOCCOCCOCCOCCOCCOC)COCCC(=O)NCCOCCOCCOCCOCCOCCOCCOCCOC)NC(=O)CON)CC4)cc3)c2n1` [AXC-961, (R)-N1-(6-((2-(1-(4-((6-amino-2-butoxy-8-oxo-7,8-dihydro-9H-purin-9-yl)methyl)benzyl)piperidin-4-yl)ethyl)amino)-5-(2-(aminooxy)acetamido)-6-oxohexyl)-N5-(dPEG4)-(mPEG8)3-glutaramide] was 856 nM; that for `CCCCOc1nc(N)c2[nH]c(=O)n(Cc3ccc(CN4CCC(CCNC(=O)[C@@H](CCCCNC(=O)CCOCCOCCOCCOCCOCCOCCOCCOC)NC(=O)CON)CC4)cc3)c2n1` [AXC-962, (R)—N-(2-(1-(4-((6-amino-2-butoxy-8-oxo-7,8-dihydro-9H-purin-9-yl)methyl)benzyl)piperidin-4-yl)ethyl)-2-(2-(aminooxy)acetamido)-6-(PEG8)amidohexanamide] was 453 nM; that for `CCCCCC(=O)Nc1nc(OCCCC)nc2c1[nH]c(=O)n2Cc1ccc(CN2CCC(CCN)CC2)cc1` [AXC-963, N-(9-(4-((4-(2-aminoethyl)piperidin-1-yl)methyl)benzyl)-2-butoxy-8-oxo-8,9-dihydro-7H-purin-6-yl)hexanamide] was 19.4 nM.
Same read-out and setting: for `CCCCOc1nc(NC(C)=O)c2[nH]c(=O)n(Cc3ccc(CN4CCC(CCN)CC4)cc3)c2n1` [AXC-964, N-(9-(4-((4-(2-aminoethyl)piperidin-1-yl)methyl)benzyl)-2-butoxy-8-oxo-8,9-dihydro-7H-purin-6-yl)acetamide] the value was 10.3 nM; for `CCCCCC(=O)Nc1nc(OCCCC)nc2c1[nH]c(=O)n2Cc1ccc(CN2CCC(CCNC(=O)CON)CC2)cc1` [AXC-965, N-(9-(4-((4-(2-(2-(aminooxy)acetamido)ethyl)piperidin-1-yl)methyl)benzyl)-2-butoxy-8-oxo-8,9-dihydro-7H-purin-6-yl)hexanamide], 48.3 nM; for `CCCCOc1nc(NC(C)=O)c2[nH]c(=O)n(Cc3ccc(CN4CCC(CCNC(=O)CON)CC4)cc3)c2n1` [AXC-966, N-(2-(1-(4-((6-acetamido-2-butoxy-8-oxo-7,8-dihydro-9H-purin-9-yl)methyl)benzyl)piperidin-4-yl)ethyl)-2-(aminooxy)acetamide], 65.5 nM.
On to `CC(C)(C)OC(=O)NCCC1CCN(Cc2ccc(Cn3ccc4c5nc(N)ncc5ccc43)cc2)CC1` [AXC-968, tert-butyl (2-(1-(4-((2-amino-7H-pyrrolo[2,3-h]quinazolin-7-yl)methyl)benzyl)piperidin-4-yl)ethyl)carbamate], for which the EC50 under setting [2] is > 10000 nM.
The same measure, in the same setting: for `NCCC1CCN(Cc2ccc(Cn3ccc4c5nc(N)ncc5ccc43)cc2)CC1` [AXC-969, 7-(4-((4-(2-aminoethyl)piperidin-1-yl)methyl)benzyl)-7H-pyrrolo[2,3-h]quinazolin-2-amine] the value was > 10000 nM.
